{
  "source": "patent US6649797B2",
  "about": "“Compounds and methods of use to treat infectious diseases” (The Picower Institute for Medical Research, priority 1996, dated 2003)",
  "assay_type_in_all_cases": "cell-based",
  "key": {"[1]": {"test_system": "HIV-1ADA", "experiment": "HIV-1ADA replication in purified monocytes, RT activity in supernatant (FIG. 2)", "conditions": "Human immunodeficiency virus 1, Monocyte, monocytes without M-CSF", "method": "FIGS. 2A-C. The effect of various concentrations of Compound No. 2 on RT activity in the supernatant of HIV-1-infected monocytes. FIG. 2A: Multiplicity of Infection (MOI) 1 ng p24/10^6 monocytes, culture d in presence of M-CSF. FIG. 2B: MOI 8 ng p24/10^6 monocytes, cultured in absence of M-CSF. FIG. 2C: MOI 0.8 ng p24/10^6 monocytes, cultured in absence of M-CSF.\nThe cultures were treated with none or between 10^−12 and 10^−6 M Compound No. 2 and, simultaneously with the beginning of treatment, the cells were exposed to the monocyte-tropic strain HIV-1ADA at about 0.01 TCID50/cell (1 ng p24/10^6 cells) for 2 hours. Samples were withdrawn at days 3, 6, 10, 14 and 17 after infection and assayed for reverse transcription activity.\nFIGS. 2B and 2C show the effects of various concentrations of Compound No. 2 on the production of HIV-1 in monocyte cultures not supplemented with M-CSF. In these studies MOI, as determined by concentration of p24 antigen was; FIG. 2B (8 ng/10^6 cells) and FIG. 2C (0.8 ng/10^6 cells).\nPrimary human monocytes were obtained from peripheral blood by Ficoll-Hypaque centrifugation and adherence to plastic as described previously. Gartner S. P., et al., 1986, Science 233:215. […]\nVirus stock and infection. […] The concentration of HIV-1 was determined by immunoassay of viral p24, concentration; using a conversion factor of 1 ng/200 HIV-1 particles. […]"}, "[2]": {"test_system": "Plasmodium falciparum", "experiment": "Antimalarial activity in vitro, [3H]-hypoxanthine incorporation", "conditions": "Plasmodium falciparum", "from_the_text": "The antimalarial properties of the compounds of the invention can be analyzed by techniques, assays and experimental animal models well known in the art. For example, the inhibition of growth of Plasmodium falciparum in vitro by the compounds may be assessed by the hypoxanthine-incorporation method (Desjardins et al., 1979, Antimicrob. Ag. Chemother. 16:710-718). […] The in vivo efficacy of the compounds can also be tested in mouse models in which parasitemia is enumerated following administration of the compound (Ager, A. L. 1984, Rodent malaria models, pp 225-264. In Handbook of Experimental Pharmacology vol. 68, Antimalarial Drugs, Peters and Richards eds, Springer-Verlag, Berlin).\nThe antimalarial activity of the compounds was determined essentially as described in Desjardins et al. supra. Fifty μl of various concentrations of a compound of the invention, chloroquine, or pyrimethamine were added to the wells of microtiter plates, followed by 200 μl of ring-stage, synchronized, P. falciparum-infected erythrocytes (final hematocrit=1.5%, final parasitemia=1-5%). The plates were incubated for 24 hr in a candle jar kept at 37° C., and then 25 μl of [^3H]-hypoxanthine (Amersham, Arlington Heights, ILL.; 2.5 μl Ci/well) was added. The plates were then incubated for a further 24 hr, before harvesting onto Unifilter-96 GF/C filter-microplates (Packard; Meriden, Conn.). Twenty-five μl of Microscint scintillation fluid (Packard) was added to each well of the filter-microplate, which was subsequently counted in a Top-count microplate scintillation counter (Packard). The percent of [^3H]-hypoxanthine uptake relative to control infect-erythrocytes was used to determine the IC50 value for the compounds by non-linear regression for LD50 determination."}, "[3]": {"test_system": "HIV-1ADA", "experiment": "Anti-HIV activity in primary human monocytes, day 9 (Table IX, FIG. 12C)", "conditions": "Human immunodeficiency virus 1, Monocyte, 216 h"}},
  "note": "Like-named read-outs stand apart in the source and are kept apart here.",
  "data": [
    {"smiles": "CC(=O)c1cc(Nc2cc(C)[n+](C)c(N)n2)cc(C(C)=O)c1.[I-]", "note": "[Compound No. 2, 2-amino-4-(3,5-diacetylphenyl)amino-1,6-dimethylpyrimidinium iodide]", "values": [
      {"measurement": "IC50", "setting": "[1]; MOI 0.8 ng p24/10^6 cells (FIG. 2C)", "result": "< 1", "unit": "nM"},
      {"measurement": "IC50", "setting": "[1]; MOI 8 ng p24/10^6 cells (FIG. 2B)", "result": "~10", "unit": "nM"}
    ]},
    {"smiles": "CC(=O)c1cc(Nc2cc(C)[n+](C)c(N)n2)cc(C(C)=O)c1", "note": "[CNI-0294, 2-Amino-4-(3,5-diacetylphenyl)amino-1,6-dimethylpyrimidinium chloride]", "values": [
      {"measurement": "IC50", "setting": "[2]; FCR3, clone FCR-3, ± standard deviation, read-out: IC50", "result": "3090 ± 300", "unit": "nM"},
      {"measurement": "IC50", "setting": "[2]; HB3, clone HB3, ± standard deviation, read-out: IC50", "result": "1790 ± 270", "unit": "nM"},
      {"measurement": "IC50", "setting": "[2]; clone D10, ± standard deviation, read-out: IC50", "result": "4000 ± 410", "unit": "nM"},
      {"measurement": "IC50", "setting": "[2]; series of cloned parasites with different sensitivities to chloroquine or pyrimethamine, read-out: median inhibitory concentration (IC50)", "result": "1790 to 4000", "unit": "nM"},
      {"measurement": "IC50", "setting": "[3]", "result": 50, "unit": "nM"}
    ]}
  ]
}
